The test system of data set [1] is MB-435 human breast cancer cells. Nature of the data set: Growth assay of MB-435 cells by MTT. The class given is cell-based. Here is the method:
96 well tissue culture dishes were seeded with 10^4 cells/well in 200 μL DME tissue culture medium supplemented with 10% fetal calf serum (FCS).
This assay detects color which is proportional to the number of cells present. Tissue culture medium containing drugs was removed and 200 µL of DME containing 2 mg/mL MTT ((3-4, 5-dimethyl thiazol-2yl) 2,5-diphenyltetrazolium bromide) was added to each well. Plates were incubated at 37° C. and 10% CO2 for 30 minutes. Medium containing MTT was then removed and the cells were washed once with PBS. Following removal of the PBS, 200 μL DMSO was added to each well and plates were placed on a rotating platform shaker for 5 minutes. Results were obtained by reading the absorbance at a wavelength of 550 nm using a spectrophotometer. Data was plotted using Prism 3.0.
Cells were plated in wells on day 0. Drugs were added on day 0 and again on days 3 and 5. The MTT assay was carried out on days 5 and 7. 1 μM of retinoic acid was used vs. 1 μM of liposomal retinoic acid (ATRA-IV). A very low dose (2 ng/ml) of trichostatin A (TSA) was also used. In addition, another inhibitor of histone deacetylases, 500 μM phenylbutyrate, was used. Various combinations of the drugs were also used in the growth assays.
Cells were treated as indicated.

Data set [2] has as its system HMEC normal human mammary epithelial cells (primary cultures). Description: Growth assay of HMEC cells, cell number counted. The class given is cell-based. As to conditions: cells counted days 0, 3, 5, 7, 1 μM retinoic acid, 2 ng/ml TSA, 25 μM phenylbutyrate. Here is the method: Also used were HMEC cells, which are cells from a normal human mammary epithelial cell line (primary cultures).
(§1) Data was plotted using Prism 3.0.
The drugs were added as described above, and cells were counted on days 0, 3, 5, and 7. […] However, in the body, most normal cells are not rapidly dividing as tumor cells are. […] This experiment was primarily performed in order to determine if the retinoid and histone deacetylase inhibitor combination worked similarly in tumor and normal epithelial cells.

In data set [3] the test system is SK-RC-39 human renal carcinoma cells. Description: Growth assay of SK-RC-39 cells, cell number counted. In kind it is cell-based. As to conditions: low dose TSA. Here is the method:
as §1
The cells were counted at day 7. A small amount of ethanol was added to the control cells, as a vehicle and solvent for the retinoic acid.
Culture conditions were as shown. […] The term EtOH indicates the control cells, treated with a very low amount of ethanol, the same amount used to dissolve retinoic acid.

Data set [4] concerns PC-3 human prostate cancer cells. Description: Growth assay of PC-3 cells, cell number counted. In kind it is cell-based. As to conditions: day 7; low dose TSA; drugs added only once on day 0. Here is the method: as §1
Results of growth assays of the human prostate cancer cell line PC-3, are depicted in FIG. 20. Cells were treated as indicated. Cell number was counted on days 0, 3, 5, and 7. Drugs were added only once on day 0. TSA alone, retinoic acid alone, and retinol alone each inhibited cell growth by approximately 20% at day 7. The combination of low dose TSA plus retinoic acid or low dose TSA plus retinol inhibited cell growth by almost 60%.

The test system of data set [5] is SK-RC-39 cells (subcutaneous xenograft). Nature of the data set: Human tumor xenograft model in nu/nu mice. In kind it is in vivo. Here is the method: Forty Swiss nu/nu mice were injected in the right flank subcutaneously with 5×10^6 SK-RC-39 cells that had been cultured in 7% MEM and then trypsinized. Four days later, four cohorts of 10 mice each began to receive one tail vein injection of TSA or control and one injection of ATRA-IV or control every Monday, Wednesday and Friday for the duration of the experiment. The four treatment groups were as follows: (1) PBS with 1% EtOH+empty liposomes; (2) LipoATRA (7.4-8.1 mg/kg)+PBS with 1% EtOH; (3) TSA ([…])+empty liposomes; and (4) TSA+LipoATRA. The study ended in the eighth week of treatment and at least six animals remained in each arm at the conclusion of the study and were considered evaluable. The animals tolerated the treatment well and gained weight throughout the treatment course. […] The tumor growth inhibition observed in the TSA+LipoATRA arm was much greater than that observed in the control arm. While the difference between the TSA+LipoATRA and the TSA+empty liposome arm was significant (FIG. 16), both of these treatments led to a very statistically significant difference in growth as compared to the control arm.
A general note: Xenograft models place foreign cells or tissue in a host animal.

Data set [6] relates to SK-RC-01 human renal carcinoma cells. Nature of the data set: Growth assay of SK-RC-01 cells, cell number counted. As to conditions: for inhibition of cell growth (FIG. 7): retinoic acid.
Description: Trichostatin A (Wako Pure Chemical Industries, Ltd., Osaka, Japan) was dissolved in 5 ml of EtOH to make a 1 mg/ml stock and sodium phenylbutyrate (NaPBA, Triple Crown America, Perkasie, Pa.) was prepared weekly from the powdered form to make a 25 mM stock solution. Cell lines were maintained in Minimal Essential Medium supplemented with 7% fetal calf serum, non-essential amino acids, and 1% penicillin/streptomycin (7% MEM).
(§2) 24 well tissue culture dishes were seeded with cells in 1 mL tissue culture medium (Clonetics) at 10^4 cells/well. Cells were incubated overnight at 37° C. in 10% CO2. Fresh medium containing drugs: Ethanol control (EtOH), 1 μM retinoic acid (RA), 2ng/mL trichostatin A (TSA), 25 μM sodium phenylbutyrate (PBa), and combinations of these were added the next day (day zero). Fresh medium containing drugs was added on days 3 and 5. Cells were trypsinized on days 0, 3, 5, and 7 and cell number was determined using a Z1 Coulter particle counter. […] Error bars are the standard error mean (SEM) of 4 replicate wells.
Cells were treated as indicated. The cell number was counted at day 7.
The cell number was counted on day 7.
Data set [7] relates to SK-RC-45 human renal carcinoma cells. Nature of the data set: Growth assay of SK-RC-45 cells, cell number counted.
Description: Liposome encapsulated ATRA (ATRA-IV, Antigenics Inc., New York, N.Y.) was reconstituted from 100 mg vials with 50 ml of 0.9% saline. Powdered ATRA was dissolved in EtOH to make a 1 mM ATRA (Sigma, St. Louis, Mo.) stock which was stored at −80° C. Trichostatin A (Wako Pure Chemical Industries, Ltd., Osaka, Japan) was dissolved in 5 ml of EtOH to make a 1 mg/ml stock and sodium phenylbutyrate (NaPBA, Triple Crown America, Perkasie, Pa.) was prepared weekly from the powdered form to make a 25 mM stock solution. Cell lines were maintained in Minimal Essential Medium supplemented with 7% fetal calf serum, non-essential amino acids, and 1% penicillin/streptomycin (7% MEM). Empty liposomes (provided by Antigenics Inc.) were diluted in 10 ml of 0.9% saline to equal the same concentration of liposomes in the lipoATRA.
as §2
Cells were treated as indicated. The cell number was counted on day 7.
Cells were treated as indicated and cell number was counted.
Data set [8] concerns LnCap human prostate cancer cells. Nature of the data set: Growth assay of LnCap cells, cell number counted. As to conditions: 168 h, day 7, 1 μM retinoic acid, 1 μM retinol, 0.5 μM valproic acid, drugs added only once at time 0, read-out: inhibition of cell growth (FIG. 17). In kind it is cell-based. Here is the method:
as §1
Cell number was counted on days 0, 3, 5, and 7. In this experiment, retinoic acid was employed alone at 1 μM. Retinol (vitamin A) was employed at 1 μM. Valproic acid, a histone deacetylase inhibitor, was employed at 0.5 μM alone. Combinations of these drugs were also used. All drugs were added only once, at time 0, in this experiment. […] Valproic acid (VPA) alone inhibited cell growth by approximately 40%. The combination of retinoic acid plus VPA inhibited cell growth by 75%, as did the combination of valproic acid plus retinol.

For data set [9], the system named is SCC-15 human head and neck cancer cells. Nature of the data set: Growth assay of SCC-15 cells, cell number counted. The conditions noted are these: SCC-15, 168 h, day 7, TSA 8 ng/ml, 1 μM retinoic acid, 1 μM retinol, drugs added only at time 0, read-out: inhibition of cell growth (FIG. 19). The class given is cell-based. Here is the method: as §1
Cells were treated as indicated. Drugs were added only at time 0. Cell number was counted on days 0, 3, 5, and 7.
Cell number was counted on days 0, 3, 5, and 7. In this experiment, a low dose of TSA (8 ng/ml) was used alone or in combination with 1 μM retinoic acid or 1 μM retinol. Drugs were added only at time 0.

Setting [10] is: cells counted at day 7, low dose TSA.
The mark [11] stands for this setting: cells counted on day 7, 1 μM retinoic acid, low dose TSA.

Usually inhibition stands for the change of the read-out against control, counted positive when it falls.

Consider `CC(/C=C/C(=O)NO)=C\[C@@H](C)C(=O)c1ccc(N(C)C)cc1` [TSA, trichostatin A], for which the “growth inhibition, high dose TSA (FIG. 3)” value in data set [1] (TSA 100 ng/ml) was “complete growth inhibition”. Besides, in [1] (day 7, 1 μM retinoic acid, 1 μM ATRA-IV, 2 ng/ml TSA, 500 μM phenylbutyrate, drugs added days 0, 3, 5), the “inhibition of cell growth (FIG. 1)” value is given as “did not inhibit cell growth”. Also, in data set [1] (days 3, 5, 7), the “comparison of cell growth reduction between treatments (FIG. 3)” value is reported as “better in reducing cell growth than phenylbutyrate”. Further, the “inhibition of cell growth (FIG. 2)” value in data set [2] is listed as “about 50%”. Moreover, in data set [3] (cells counted at day 7, retinoic acid), the “inhibition of cell growth (FIG. 6)” value is 80-90%. Moreover, the “inhibition of cell growth (FIG. 9)” value in data set [3] (cells counted on day 7, 1 μM retinoic acid) is given as “approximately 75%”. The “inhibition of cell growth (FIG. 20)” value in data set [4] is listed as “approximately 20%”. Also, the “toxicity, histologic analysis of the liver, lung, spleen and kidneys” value in data set [5] (nu/nu mice, tail vein injection Mon/Wed/Fri for eight weeks) is “lack of toxicity”. Besides, the “inhibition of tumor growth compared to control (FIG. 16)” value in data set [5] (tail vein injection Mon/Wed/Fri, eighth week of treatment, LipoATRA 7.4-8.1 mg/kg, TSA 34-41 μg/ml) worked out at 38%. For the same compound, in [6] (cells counted at day 7, TSA 100 ng/ml), the “inhibition of cell growth, high dose TSA (FIG. 7)” value is recorded as “roughly 100%”. In [6] (setting [10]), the “inhibition of cell growth (FIG. 7)” value is listed as 20-25%. The “inhibition of cell growth (FIG. 12)” value in data set [6] (setting [11]) is “approximately 25%”. Moreover, the “inhibition of cell growth, high dose TSA (FIG. 12)” value in [6] (cells counted on day 7, high dose TSA) is on record as “greater than 95%”. In data set [7] (setting [11]), the “inhibition of cell growth (FIG. 8)” value is 60-65%. Further, in data set [7] (cells counted on day 7, TSA 100 ng/ml), the “inhibition of cell growth, high dose TSA (FIG. 8)” value was “extremely effective in inhibiting kidney cancer cell growth”.

Turning to `CC1=C(/C=C/C(C)=C/C=C/C(C)=C/CO)C(C)(C)CCC1` [retinol], the results for the inhibition at 1 µM in [8] and in data set [9] were roughly 27% and 35 to 40%, respectively. Besides, the “inhibition of cell growth (FIG. 20)” value in data set [4] was “approximately 20%”.

Turning to `CC1=C(/C=C/C(C)=C/C=C/C(C)=C/C(=O)O)C(C)(C)CCC1` [retinoic acid, 3, 7 dimethyl-9-(2,6,6-trimethyl-1-cyclohenen-1-yl)-2,4,6,8,-nonatetraenoic acid], the inhibition at 1 µM is roughly 20% in data set [1] (Homo sapiens, 168 h, day 7, 1 μM retinoic acid, 1 μM ATRA-IV, 2 ng/ml TSA, 500 μM phenylbutyrate, drugs added days 0, 3, 5, read-out: inhibition of cell growth (FIG. 1)); roughly 50% in data set [2] (Homo sapiens, HMEC, read-out: inhibition of cell growth (FIG. 2)); 25% in [8]; 35 to 40% in data set [9]; 12.5% in [6] (Homo sapiens, 168 h, read-out: inhibition of cell growth (FIG. 12)); 55 to 60% in data set [7] (Homo sapiens, 168 h, read-out: inhibition of cell growth (FIG. 8)). In addition, the “inhibition of cell growth (FIG. 20)” value in data set [4] is “approximately 20%”. The “inhibition of cell growth (FIG. 7)” value in [6] (setting [10]) is given as roughly 10%.

On to `CCCC(CCC)C(=O)O` [Valproic acid], for which, in [8], the inhibition at 0.5 µM was roughly 40%.

Values taken from patent US20020183388A1, “Use of retinoids plus histone deacetylase inhibitors to inhibit the growth of solid tumors” (priority 2001, published 2002).
